Source: article PMC11758266, “Lipid-Modulated, Graduated Inhibition of N-Glycosylation Pathway Priming Suggests Wide Tolerance of ER Proteostasis to Stress” (ACS Central Science, 2024)
“Also recorded” adds a separate entry of the source.

Key:
[1] = test system: ATF4; test: HEK-ATF4 high-content immunofluorescence imaging assay (ER stress); format: cell-based, human; details: for ER stress response in the phenotypic assay (in words): HEK293 cells, 6 h, nuclear ATF4 as marker
Description: Here, the nuclear localization of the transcription factor ATF4 (which leads to subsequent expression of CHOP and cell death) was used as a phenotypic marker of ER stress (Figure 3A). Use of multi(384)-well plate format allowed wild-type HEK cells to be treated with analogues over a titrating concentration range of 0.5 nM to […] for 6 h in a quantitative manner (Figure 3C). After fixation with paraformaldehyde, high-content cellular fluorescence microscopy imaging was used to both determine the site and quantify the location of ATF4[32] (Figure 3B,C). Thus, immunofluorescent staining of the cells exploited a primary rabbit anti-ATF4 (D4B8) antibody followed by a solution containing a secondary Alexa Fluor 488-labeled goat anti-rabbit IgG along with Hoechst 33342 nuclei stain. In this way, confocal fluorescence microscopy at excitation wavelengths of 405 and 488 nm produced, as a direct primary readout, the intensity of ATF4 located in the nucleus as well as the ratio of ATF4 located between the nucleus (colocalized with Hoechst) and cytoplasm (see Figure 3B,C for representative images and the Supporting Information for channel-by-channel images). Concurrent readout of the number of stained nuclei (Hoechst nuclei stain) in live cells was also used as an internal cytotoxicity measure. This high-content method allowed detailed quantitative cellular dose responses to be determined with precision (Figure 3D). […] Consistent with ATF4 as a driver of apoptosis, this also drove cell death at higher concentrations (EC50 ∼ 10 μM) similar to those determined previously.[33] This therefore identified a clear dose–response window of more than 2 orders of magnitude over such key downstream events.
Figure 3 High-content phenotypic screen for putative ER stress inducers. (A) Schematic of the screening process. 12,000 HEK293 WT cells per well were plated into a 384-well plate and incubated at 37 °C for 24 h. Compounds were serially diluted and added to the plate and incubated for 6 h at 37 °C, at which point the cells were fixed with 4% PFA in PBS. The plates were then submitted to indirect ATF4 immunofluorescence, in which the plate was incubated with a primary anti-ATF4 (D4B8) antibody, followed by Alexa Fluor 488-labeled goat anti-rabbit secondary antibody and Hoechst 33342 dye. Plates were imaged using an OPERA-Phenix high-content imaging platform with fluorescence excitation at 405 and 488 nm. The images were analyzed, and the nuclear intensity of ATF4 for each cell was quantitatively determined (gray filled circles, left-hand axis in (D)) as well as the count of live cells (black squares, right-hand axis in (D)). Created in BioRender. https://BioRender.com/z32w873 (B) Representative section of imaging (red = nuclei, green = ATF4) for a given cellular population at a single dose (here exposed to tunicamycin at 41.2 nM). (C) Representative series panels of dose–response images after exposure to three different Tun-XE,YG analogues and DMSO control. (D) Corresponding resulting quantification of the high-throughput microscopy assay displaying the live cell count (black, right axis) and the nuclear intensity of ATF4 (gray, left axis) of tunicamycin and two lipid altered analogues, one with a large lipid at the gating position (Tun-9E,9G) and other with a short lipid at this position (Tun-8E,2G). See the Supporting Information for full details.
Supplementary Phenotypic Screening Methods
Tunicamycin analogues were tested in the HEK-ATF4 High Content Imaging assay to assess their ER stress generating ability. Wild-type HEK293 cells were plated in 384-well imaging assay plates at a density of 12,000 cells per well in growth medium (containing DMEM/F12, 10% FBS, 2 mM L-Glutamine, 100 U/mL Penicillin - 100µg/mL Streptomycin) and incubated at 37°C, 5% CO2. 24-hrs later, the medium was changed to 50 µl assay medium per well (DMEM/F12, 0.3% FBS, 2mM L-Glutamine, 100 U/mL Penicillin – 100 µg/mL […]
Streptomycin). […]

[2] = test system: His-tagged IgG-Fc domain; test: In cell glycoprotein inhibition assay (IgG-Fc expression, SDS-PAGE and Western blot); format: cell-based, human; details: HEK293T cells, 3 days, analogue 10 µM down to 0.5 nM (Tun-8E,2G 300 µM down to 15 nM), Figure S13

Compound | ER stress response in the phenotypic assay (in words) [1] | glycosylation state of expressed IgG-Fc (in words) [2] | EC50 ([1]; wild-type HEK293 cells, 6 h treatment, read-out: EC50, increase in ATF4 in the nucleus) | glycosylation state of expressed IgG-Fc (in words) ([2]; listed as Tun)
CCCCCCCC(=O)N[C@H]1[C@H](O[C@H]2O[C@H](CO)[C@@H](O)[C@H](O)[C@H]2NC(C)=O)O[C@H](C[C@@H](O)[C@H]2O[C@@H](n3ccc(=O)[nH]c3=O)[C@H](O)[C@@H]2O)[C@H](O)[C@@H]1O [Tun-8E,2G] | did not induce ER stress | unglycosylated IgG Fc protein is observed; also recorded: expression of non-glycosylated IgG-Fc | – | –
tunicamycin [reference compound] | clear ER stress response | unglycosylated IgG Fc protein is observed | 44 ± 3.2 nM | expression of non-glycosylated IgG-Fc
CCCCCCCCC(=O)N[C@H]1[C@H](O[C@H]2O[C@H](CO)[C@@H](O)[C@H](O)[C@H]2NC(=O)CC(C)C)O[C@H](C[C@@H](O)[C@H]2O[C@@H](n3ccc(=O)[nH]c3=O)[C@H](O)[C@@H]2O)[C@H](O)[C@@H]1O [Tun-9E,i5G] | did not induce ER stress | – | – | –
CCCCCCCCC(=O)N[C@H]1[C@H](O[C@H]2O[C@H](CO)[C@@H](O)[C@H](O)[C@H]2NC(=O)CCCCCCCC)O[C@H](C[C@@H](O)[C@H]2O[C@@H](n3ccc(=O)[nH]c3=O)[C@H](O)[C@@H]2O)[C@H](O)[C@@H]1O [Tun-9E,9G] | did not induce any ER stress response | expression of intact glycosylated protein | – | –
CCCCCCCCC(=O)N[C@H]1[C@@H](O[C@@H]2O[C@H](C[C@@H](O)[C@H]3O[C@@H](n4ccc(=O)[nH]c4=O)[C@H](O)[C@@H]3O)[C@H](O)[C@H](O)[C@H]2NC(=O)CCC)O[C@H](CO)[C@@H](O)[C@@H]1O [Tun-4E,9G] | did not induce any ER stress response | – | – | –
